Tested on: ADP-stimulated platelets
Test: ADP-stimulated platelet aggregation assay (gel-filtered human platelets)
Type: cell-based
Conditions: ADP-stimulated gel-filtered human platelets (2×10^8 per ml), fibrinogen 100 ug/ml, Ca^2+ 1 mM, 10 mM ADP, 37° C., read-out: IC50 (inhibition of aggregation by 50% relative to a control)
Source text: The activity of these fibrinogen receptor antagonists is illustrated below. One test used to evaluate fibrinogen receptor antagonist activity is based on evaluation of inhibition of ADP-stimulated platelets. Aggregation requires that fibrinogen bind to and occupy the platelet fibrinogen receptor site. Inhibitors of fibrinogen binding inhibit aggregation. In the ADP-stimulated platelet aggregation assay used to determine inhibition associated with these fibrinogen receptor antagonists, human platelets are isolated from fresh blood, collected into acid citrate/dextrose by differential centrifugation followed by gel filtration on Sepharose 2B in divalent ion-free Tyrode's buffer (pH 7.4) containing 2% bovine serum albumin.
Platelet aggregation is measured at 37° C. in a Chronolog aggregometer. The reaction mixture contains gel-filtered human platelets (2×10^8 per ml), fibrinogen (100 micrograms per ml (ug/ml)), Ca^2+ (1 mM), and the fibrinogen receptor antagonists tested. The aggregation is initiated by adding 10 mM ADP 1 minute after the other components are added. The reaction is then allowed to proceed for at least 2 minutes. The extent of inhibition of aggregation is expressed as the percentage of the rate of aggregation observed in the absence of inhibitor. The IC50 is the dose of a particular compound inhibiting aggregation by 50% relative to a control lacking the compound. […]

IC50: 100 µM
SMILES: C[C@H](CC(=O)O)NC(=O)CN1CCCC(CCC2CCNCC2)C1=O (stereo partly shown)
